The Ki is the dissociation constant of the complex between target and ligand, obtained from inhibition or displacement.

Among the data in patent publication US11596639B2, “Substituted indole Mcl-1 inhibitors” (Vanderbilt University, priority 2016, dated 2023) are Ki and GI50 values, retold here.

For one assay, the target named is Mcl-1 (Homo sapiens (Human), UniProt Q07820). As to the kind of experiment: TR-FRET binding assay, FITC-Bak peptide and MBP-tagged Mcl-1. Conditions: read-out: Ki for Inhibition of Mcl-1 by TR-FRET assay. As for the experimental part: Compounds are diluted in DMSO in a 16-point, semilog serial dilution scheme. […] The plate was mixed and incubated for 3 hours at room temperature. […] TR-FRET signal is plotted and IC50 and Ki values are calculated in the same manner as the fluorescence polarization anisotropy based competition assays.
(In general: In TR-FRET formats the signal depends on donor and acceptor labels being close together.)

Assay [1] deals with H929 human cancer cell lines. Briefly: Cellular viability / proliferation (Cell TiterGlo, 72 h). The class given is cell-based. In short, it runs like this: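 1,000 cells/well, 10% FBS medium; compound added at 24 h, 2-fold dilutions from 50 μM top, DMSO <1% final. 72 h exposure, CellTiterGlo 30 min RT dark, luminescence read. IC50 by 4-parameter fit.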
Where [2] appears, read: Homo sapiens, NCI-H929, 72 h, read-out: GI50 on cellular proliferation of H929 human cancer cell lines, H929 cells, 72 h, Cell TiterGlo, 10% FBS.

Where two headings read alike, the source gives them in different places.

Mcl-1, sequence (Q07820 172-327): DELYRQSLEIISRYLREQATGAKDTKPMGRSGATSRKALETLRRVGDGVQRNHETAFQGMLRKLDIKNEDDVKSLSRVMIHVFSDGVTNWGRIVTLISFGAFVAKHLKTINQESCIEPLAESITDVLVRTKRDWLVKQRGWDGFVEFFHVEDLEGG

In the case of `Cc1cc(OCCCc2c3n(c4c(-c5c(C)nn(C)c5C)c(Cl)ccc24)[C@H](C)CN(c2cc(NC(=O)CN(C)C)cc4c(C(=O)O)cn(C)c24)C3=O)cc(C)c1Cl` [Example 542, (R)-7-(7-Chloro-10-(3-(4-chloro-3,5-dimethylphenoxy)propyl)-4-methyl-1-oxo-6-(1,3,5-trimethyl-1H-pyrazol-4-yl)-3,4-dihydropyrazino[1,2-a]indol-2(1H)-yl)-5-(2-(dimethylamino)acetamido)-1-methyl-1H-indole-3-carboxylic acid], the Ki on Mcl-1 was determined as 0.48 nM. Besides, in assay [1] (setting [2]), the GI50 is 3300 nM.

Regarding `Cc1cc(OCCCc2c3n(c4c(-c5c(C)nn(C)c5C)c(Cl)ccc24)[C@H](C)CN(c2cn(CCN4CCCCC4)c4ccc(C(=O)O)cc24)C3=O)cc(C)c1Cl` [Example 543, (R)-3-(7-Chloro-10-(3-(4-chloro-3,5-dimethylphenoxy)propyl)-4-methyl-1-oxo-6-(1,3,5-trimethyl-1H-pyrazol-4-yl)-3,4-dihydropyrazino[1,2-a]indol-2(1H)-yl)-1-(2-(piperidin-1-yl)ethyl)-1H-indole-5-carboxylic acid], at Mcl-1, the Ki is 2.9 nM. The GI50 in assay [1] (setting [2]) worked out at 1800 nM.

Regarding `Cc1cc(OCCCc2c3n(c4c(-c5c(C)nn(C)c5C)c(Cl)ccc24)[C@H](C)CN(c2cc(CN4CCN(C)CC4)cc4cc(C(=O)O)n(C)c24)C3=O)cc(C)c1Cl` [Example 544, (R)-7-(7-Chloro-10-(3-(4-chloro-3,5-dimethylphenoxy)propyl)-4-methyl-1-oxo-6-(1,3,5-trimethyl-1H-pyrazol-4-yl)-3,4-dihydropyrazino[1,2-a]indol-2(1H)-yl)-1-methyl-5-((4-methylpiperazin-1-yl)methyl)-1H-indole-2-carboxylic acid], the Ki on Mcl-1 was < 0.2 nM. Further, the GI50 in assay [1] (setting [2]) was determined as 320 nM.

For `Cc1nn(C)c(C)c1-c1c(Cl)ccc2c(CCCOc3cccc4ccccc34)c3n(c12)[C@H](C)CN(c1cn(C)c2ccc(C(=O)O)cc12)C3=O` [Example 545, (R)-3-(7-Chloro-4-methyl-10-(3-(naphthalen-1-yloxy)propyl)-1-oxo-6-(1,3,5-trimethyl-1H-pyrazol-4-yl)-3,4-dihydropyrazino[1,2-a]indol-2(1H)-yl)-1-methyl-1H-indole-5-carboxylic acid], the Ki at Mcl-1 amounted to 0.39 nM. Besides, the GI50 in assay [1] (setting [2]) turned out to be 560 nM.

In the case of `Cc1cc(OCCCc2c3n(c4c(-c5c(C)nn(C)c5C)c(Cl)ccc24)[C@H](C)CN(c2cn(CC(=O)N4CCN(C)CC4)c4ccc(-c5ncn(C)n5)cc24)C3=O)cc(C)c1Cl` [Example 546, (R)-7-Chloro-10-(3-(4-chloro-3,5-dimethylphenoxy)propyl)-4-methyl-2-(5-(1-methyl-1H-1,2,4-triazol-3-yl)-1-(2-(4-methylpiperazin-1-yl)-2-oxoethyl)-1H-indol-3-yl)-6-(1,3,5-trimethyl-1H-pyrazol-4-yl)-3,4-dihydropyrazino[1,2-a]indol-1(2H)-one], the Ki on Mcl-1 worked out at 0.38 nM. The GI50 in assay [1] (setting [2]) came out at 420 nM.

For the molecule `COCCn1cc(N2C[C@@H](C)n3c(c(CCCOc4cc(C)c(Cl)c(C)c4)c4ccc(Cl)c(-c5c(C)nn(C)c5C)c43)C2=O)c2cc(-c3ncccn3)ccc21` [Example 548, (R)-7-Chloro-10-(3-(4-chloro-3,5-dimethylphenoxy)propyl)-2-(1-(2-methoxyethyl)-5-(pyrimidin-2-yl)-1H-indol-3-yl)-4-methyl-6-(1,3,5-trimethyl-1H-pyrazol-4-yl)-3,4-dihydropyrazino[1,2-a]indol-1(2H)-one], the Ki at Mcl-1 is 0.94 nM. For the same molecule, the GI50 in assay [1] (setting [2]) is 610 nM.

As for `Cc1cc(OCCCc2c3n(c4c(-c5c(C)nn(C)c5C)c(Cl)ccc24)[C@H](C)CN(c2cc(CN4CCOCC4)cc4c(C(=O)O)cn(C)c24)C3=O)cc(C)c1Cl` [Example 549, (R)-7-(7-chloro-10-(3-(4-chloro-3,5-dimethylphenoxy)propyl)-4-methyl-1-oxo-6-(1,3,5-trimethyl-1H-pyrazol-4-yl)-3,4-dihydropyrazino[1,2-a]indol-2(1H)-yl)-1-methyl-5-(morpholinomethyl)-1H-indole-3-carboxylic acid], on Mcl-1, the Ki turned out to be 0.34 nM. Further, the GI50 in assay [1] (setting [2]) came out at 340 nM.

As to `Cc1cc(OCCCc2c3n(c4c(-c5c(C)nn(C)c5C)c(Cl)ccc24)[C@H](C)CN(c2cc(CN4CCCC4)cc4c(C(=O)O)cn(C)c24)C3=O)cc(C)c1Cl` [Example 550, (R)-7-(7-chloro-10-(3-(4-chloro-3,5-dimethylphenoxy)propyl)-4-methyl-t-oxo-6-(1,3,5-trimethyl-1H-pyrazol-4-yl)-3,4-dihydropyrazino[1,2-a]indol-2(1H)-yl)-1-methyl-5-(pyrrolidin-1-ylmethyl)-1H-indole-3-carboxylic acid], the Ki at Mcl-1 worked out at 0.52 nM. Moreover, the GI50 in assay [1] (H929 cells, 72 h, Cell TiterGlo, 10% FBS, read-out: GI50 on cellular proliferation of H929 human cancer cell lines) is 1200 nM.

With `CC(=O)N1CCN(c2ccnc(Cn3c(C(=O)O)cc4cc(C)cc(N5C[C@@H](C)n6c(c(CCCOc7cc(C)c(Cl)c(C)c7)c7ccc(Cl)c(-c8c(C)nn(C)c8C)c76)C5=O)c43)c2)CC1` [Example 552, (R)-1-((4-(4-acetylpiperazin-1-yl)pyridin-2-yl)methyl)-7-(7-chloro-10-(3-(4-chloro-3,5-dimethylphenoxy)propyl)-4-methyl-1-oxo-6-(1,3,5-trimethyl-1H-pyrazol-4-yl)-3,4-dihydropyrazino[1,2-a]indol-2(1H)-yl)-5-methyl-1H-indole-2-carboxylic acid], the Ki at Mcl-1 is < 0.2 nM. Besides, the GI50 in assay [1] (setting [2]) was determined as 4600 nM.

For the molecule `Cc1cc(N2C[C@@H](C)n3c(c(CCCOc4cc(C)c(Cl)c(C)c4)c4ccc(Cl)c(-c5c(C)nn(C)c5C)c43)C2=O)c2c(c1)cc(C(=O)O)n2Cc1cc(N2CCNCC2)ccn1` [Example 553, (R)-7-(7-chloro-10-(3-(4-chloro-3,5-dimethylphenoxy)propyl)-4-methyl-1-oxo-6-(1,3,5-trimethyl-1H-pyrazol-4-yl)-3,4-dihydropyrazino[1,2-a]indol-2(1H)-yl)-5-methyl-1-((4-(piperazin-1-yl)pyridin-2-yl)methyl)-1H-indole-2-carboxylic acid], at Mcl-1, the inhibitory constant (Ki) is < 0.2 nM. For the same molecule, the GI50 in assay [1] (setting [2]) was 2800 nM.

As to `Cc1cc(OCCCc2c3n(c4c(-c5c(C)nn(C)c5C)c(Cl)ccc24)[C@H](C)CN(c2cn(Cc4ccncc4)c4ccc(C(=O)O)cc24)C3=O)cc(C)c1Cl` [Example 555, (R)-3-(7-chloro-10-(3-(4-chloro-3,5-dimethylphenoxy)propyl)-4-methyl-1-oxo-6-(1,3,5-trimethyl-1H-pyrazol-4-yl)-3,4-dihydropyrazino[1,2-a]indol-2(1H)-yl)-1-(pyridin-4-ylmethyl)-1H-indole-5-carboxylic acid], the Ki on Mcl-1 is 0.26 nM. Besides, in assay [1] (setting [2]), the GI50 is 1300 nM.

With `Cc1cc(N2C[C@@H](C)n3c(c(CCCOc4cc(C)c(Cl)c(C)c4)c4ccc(Cl)c(-c5c(C)nn(C)c5C)c43)C2=O)c2c(c1)cc(C(=O)O)n2Cc1cc(C#N)ccn1` [Example 556, (R)-7-(7-chloro-10-(3-(4-chloro-3,5-dimethylphenoxy)propyl)-4-methyl-1-oxo-6-(1,3,5-trimethyl-1H-pyrazol-4-yl)-3,4-dihydropyrazino[1,2-a]indol-2(1H)-yl)-1-((4-cyanopyridin-2-yl)methyl)-5-methyl-1H-indole-2-carboxylic acid], on Mcl-1, the Ki is < 0.2 nM. In assay [1] (setting [2]), the GI50 is 280 nM.

Consider `Cc1cc(N2C[C@@H](C)n3c(c(CCCOc4cc(C)c(Cl)c(C)c4)c4ccc(Cl)c(-c5c(C)nn(C)c5C)c43)C2=O)c2c(c1)cc(C(=O)O)n2Cc1cccc(C#N)n1` [Example 557, (R)-7-(7-chloro-10-(3-(4-chloro-3,5-dimethylphenoxy)propyl)-4-methyl-1-oxo-6-(1,3,5-trimethyl-1H-pyrazol-4-yl)-3,4-dihydropyrazino[1,2-a]indol-2(1H)-yl)-1-((6-cyanopyridin-2-yl)methyl)-5-methyl-1H-indole-2-carboxylic acid], for which the inhibitory constant (Ki) at Mcl-1 was < 0.2 nM. Besides, the GI50 in assay [1] (setting [2]) was found to be 820 nM.

As to `Cc1cc(OCCCc2c3n(c4c(-c5c(C)ncnc5C)c(Cl)ccc24)[C@H](C)CN(c2cc(OCCN4CCOCC4)cc4cc(C(=O)O)n(C)c24)C3=O)cc(C)c1Cl` [Example 558, (R)-7-(7-chloro-10-(3-(4-chloro-3,5-dimethylphenoxy)propyl)-6-(4,6-dimethylpyrimidin-5-yl)-4-methyl-1-oxo-3,4-dihydropyrazino[1,2-a]indol-2(1H)-yl)-1-methyl-5-(2-morpholinoethoxy)-1H-indole-2-carboxylic acid], the Ki at Mcl-1 is < 0.2 nM. Also, the GI50 in assay [1] (setting [2]) came to 310 nM.

With `COCCn1cc(N2C[C@@H](C)n3c(c(CCCOc4cc(C)c(Cl)c(C)c4)c4ccc(Cl)c(-c5c(C)nc(CN6CCN(C)CC6)nc5C)c43)C2=O)c2cc(C(=O)O)ccc21` [Example 559, (R)-3-(7-chloro-10-(3-(4-chloro-3,5-dimethylphenoxy)propyl)-6-(4,6-dimethyl-2-((4-methylpiperazin-1-yl)methyl)pyrimidin-5-yl)-4-methyl-1-oxo-3,4-dihydropyrazino[1,2-a]indol-2(1H)-yl)-1-(2-methoxyethyl)-1H-indole-5-carboxylic acid], the Ki on Mcl-1 is < 0.2 nM. The GI50 in assay [1] (setting [2]) was found to be 430 nM.

`Cc1cc(OCCCc2c3n(c4c(-c5c(C)nn(C)c5C)c(Cl)ccc24)[C@H](C)CN(c2cn(CC(=O)N(C)C)c4ccc(-c5ncn(C)n5)cc24)C3=O)cc(C)c1Cl` [Example 560, (R)-2-(3-(7-Chloro-10-(3-(4-chloro-3,5-dimethylphenoxy)propyl)-4-methyl-1-oxo-6-(1,3,5-trimethyl-1H-pyrazol-4-yl)-3,4-dihydropyrazino[1,2-a]indol-2(1H)-yl)-5-(1-methyl-1H-1,2,4-triazol-3-yl)-1H-indol-1-yl)-N,N-dimethylacetamide]: the Ki on Mcl-1 was 0.53 nM. Moreover, the GI50 in assay [1] (setting [2]) was found to be 270 nM.
